Legend:
hMAO B = molecular target: T1, hMAO B (Homo sapiens, UniProt P27338); assay: hMAO B kinetic studies (Michaelis-Menten, Lineweaver-Burk); type: biochemical
T1 construct: purchased Sigma Aldrich M7441
T1 sequence (P27338 1-520): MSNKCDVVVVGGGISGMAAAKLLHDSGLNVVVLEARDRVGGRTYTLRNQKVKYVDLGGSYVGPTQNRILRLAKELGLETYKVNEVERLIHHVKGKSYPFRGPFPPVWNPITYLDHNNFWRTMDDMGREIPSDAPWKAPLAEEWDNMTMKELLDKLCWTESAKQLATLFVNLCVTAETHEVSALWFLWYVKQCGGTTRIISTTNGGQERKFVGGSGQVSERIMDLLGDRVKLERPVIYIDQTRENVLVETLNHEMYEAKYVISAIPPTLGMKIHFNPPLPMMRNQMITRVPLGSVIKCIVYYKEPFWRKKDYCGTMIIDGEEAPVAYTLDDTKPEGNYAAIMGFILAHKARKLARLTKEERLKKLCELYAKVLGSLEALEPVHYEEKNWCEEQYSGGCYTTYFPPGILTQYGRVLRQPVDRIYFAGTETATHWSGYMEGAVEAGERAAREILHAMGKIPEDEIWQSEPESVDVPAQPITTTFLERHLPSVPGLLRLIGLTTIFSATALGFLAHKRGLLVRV
Experimental: Results from the kinetic experiment were used for determination of Michaelis–Menten curves (Figure 4A,C). […] From Michaelis–Menten curves, Vmax and KM values were fitted (Table 2). For both compounds, Vmax values decreased curvilinearly and KM values increased curvilinearly with the increased inhibitor concentrations.
The mode of the inhibition was tested according to the standard procedure described in Reversibility Studies using different concentrations of the substrate. […] Substrate was used in six concentrations: […], 0.1 mM, 0.5 mM, 1 mM, 1.5 mM, and 2 mM. After the experiment, velocities were calculated and put on the graph (y-axis) against the concentration of the substrate (x-axis). From the Michaelis–Menten plot Vmax, KM, and α values were calculated for different concentrations of the inhibitor. Double-reciprocal plot (Lineweaver–Burk plot) were prepared to display the data.
The α values for different modes of reversible inhibition as well as their diagnostic signature on […]
The α value for compound 9 was calculated by GraphPad Prism software from the nonlinear regression curves using following equation for mixed- […]
v = Vmax*[S] / [S]*(1+ [I]/ αKi) + KM*(1+ [I]/Ki) (1) v – velocity of enzyme reaction. Vmax - maximum velocity (at infinite substrate concentration); Ki – dissociation constant for Enzyme-Inhibitor complex (in the enzymology literature other symbols can be used such as: Ki, Kii , KEI etc.); αKi – dissociation constant for Enzyme-Substrate-Inhibitor complex (in the literature also under the symbols: Ki’, Kis and KES); KM – Michaelis-Menten constant; [I]– concentration of the inhibitor; [S] – concentration of the substrate [Ref S1].
Table S1. Relation between inhibition modality, α value, and diagnostic signature on the double-reciprocal plots (i.e Lineweaver-Burk plot) [S2].
α Inhibition modality Diagnostic signature on […]
α = 1 (inhibitor binds to free enzyme lines converge at the x-axis and enzyme-substrate complex
(inhibitor can bind to free lines converge to the left of the α > 1 enzyme and enzyme-substrate y-axis and above the x-axis complex unequally), inhibitor’s affinity is higher for free enzyme
(inhibitor can bind to free
α < 1 enzyme and enzyme-substrate lines converge to the left of the complex unequally), inhibitor’s y-axis and below the x-axis affinity is higher for the enzyme- […]
α → ∞ (inhibitor and substrate compete lines converge at the y-axis for the same site of binding) […]
α → 0 and α > 0 (inhibitor binds only to the parallel lines

[1] = test system: haloperidol-induced catalepsy; assay: haloperidol-induced catalepsy, bar test; type: in vivo, Wistar rats; conditions: for Times of Observation of Catalepsy (s), 0 min / Times of Observation of Catalepsy (s), 3 min / Times of Observation of Catalepsy (s), 6 min: mean ± SEM (n = 6)
Experimental: Haloperidol (dopamine D2 antagonist)-induced catalepsy in rodents is a popular model for screening of antiparkinsonian activity of compounds [21]. Caused symptoms in animals are similar to the inability of PD patients to initiate movements. […] The reversal of catalepsy was tested for 6 min (3 times in 3 min intervals) after 1 h of haloperidol administration. As the reference compound was used MSX-3, the adenosine A2A receptor antagonist with confirmed ability to reverse catalepsy mediated by D1 and D2 receptor antagonists.
Haloperidol-induced catalepsy was not reduced by DL-76 administrated at a dose of 25 mg/kg body weight (Table 3). After administration of DL-76 at a dose of 50 mg/kg body weight, low antiparkinsonian activity in the bar test was observed. […] This effect was weaker than the anti-Parkisonian activity of MSX-3.
The experiments were carried out on male rats Wistar (180–220 g). Animals were housed in plastic cages in room at a constant temperature of 20 ± 2 °C with natural light–dark cycles. The animals had free access to standard pellet diet and water and were used after a minimum of 3 days of acclimatization to the housing conditions. Control and experimental groups consisted of 6 animals each. All experimental procedures were performed according to the European Union Directive of 22 September 2010 (2010/63/EU) and Polish legislation concerning animal care and use and was approved by the Local Ethics Committee for Experiments on Animals in Kraków, Poland (Resolution No. 70/2014, approval date: 20 May 2014). The examined compound was administered as the suspension in 0.5% methylcellulose in constant volume of 10 mL/kg.
Antiparkinsonian activity in catalepsy tests was performed as described in [28]. Haloperidol was administered s.c. at a dose of 0.63 mg/kg, which in 100% of control animals caused catalepsy. Tested compounds were administered i.p. at the doses 50 and 25 mg/kg body weight, 5 min after haloperidol injection. After 60 min from the injection of haloperidol, to assess the occurrence of catalepsy, the animals were placed in a forced position and the time they remained in this position was measured. Two tests were performed to determine the antiparkinsonian activity: crossed leg position test and bar test. In the first test, the animals were put on the hind paws behind the front (forced position); in the second, the animals were supported on a wooden block (the front paws were placed on a block suspended 10 cm above the ground). Then, the time that the animals remain is measured in a forced position (time was measured to a maximum of 60 s). Observation was carried out 3 times in 3-min intervals. The shortening of the time of catalepsy to the control group was adopted for the antiparkinsonian activity.

CC(C)(C)c1ccc(OCCCN2CCCCC2)cc1 [DL76, 1-(3-(4-tert-butylphenoxy)propyl)piperidine] was tested, and the “constant α” value (hMAO B; calculated by GraphPad Prism from nonlinear regression, mixed-model inhibition) was 4.6, the “mode of hMAO B inhibition” value (hMAO B; from Vmax and KM behaviour and Lineweaver-Burk plot) was “mixed mode inhibition” and the “Vmax (RFU/min)” value (hMAO B; inhibitor concentration 7 nM) was 1628 RFU/min. The “Vmax (RFU/min)” value (hMAO B; inhibitor concentration 48 nM) was 1165 RFU/min, the “Vmax (RFU/min)” value (hMAO B; inhibitor concentration 164 nM) was 726.3 RFU/min and the “reduction of haloperidol-induced catalepsy” value ([1]; 25 mg/kg body weight) was “not reduced”. For the same molecule, the “Times of Observation of Catalepsy (s), 0 min” value ([1]; 25 mg/kg i.p.) was 19.5 ± 4.2 s, the “Times of Observation of Catalepsy (s), 3 min” value ([1]; 25 mg/kg i.p.) was 26.5 ± 3.5 s and the “Times of Observation of Catalepsy (s), 6 min” value ([1]; 25 mg/kg i.p.) was 30.0 ± 0 s. For the same molecule, the “duration of catalepsy (versus control 25.8)” value ([1]; 50 mg/kg body weight) was 16.4, the “reduction of the duration of catalepsy compared to the control group” value ([1]; 50 mg/kg body weight) was 36.4% and the “Times of Observation of Catalepsy (s), 0 min” value ([1]; 50 mg/kg i.p.) was 13.8 ± 5.9 s. For the same molecule, the “Times of Observation of Catalepsy (s), 3 min” value ([1]; 50 mg/kg i.p.) was 13.5 ± 4.2 s and the “Times of Observation of Catalepsy (s), 6 min” value ([1]; 50 mg/kg i.p.) was 22.0 ± 5.0 s.
